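96-well plates; 48 h exposure; 5 concentrations. Endpoints by linear interpolation between flanking doses. Not reached: highest tested concentration assigned. Abbreviation: GI50, concentration required for 50% inhibition of growth. TGI is the concentration that stops growth completely.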
system: MOLT-4 leukemia; assay: NCI-60 cell line screen, 48 h

Row | SMILES | TGI
1 | COC(=O)[C@]12CC[C@H]3CN(C(=O)OCc4ccccc4)[C@H]([C@H]31)[C@H](c1ccco1)N2 | 64.5 µM
2 | O=C(C=P(c1ccccc1)(c1ccccc1)c1ccccc1)c1ccc(-c2cccc([N+](=O)[O-])c2)cc1 | 5.55 µM
3 | O=C1NC2c3c(I)sc(I)c3/C(=N\O)C2O1 (configuration not stated) | > 100 µM
4 | O=C(NCCOC(=O)OCCNC(=O)NC1CCCCC1)NC1CCCCC1 | > 100 µM
5 | C[C@]1(O)CC[C@H]2[C@@H]3CCc4cc(O)ccc4[C@H]3CC[C@@]21C | > 100 µM

system: MDA-MB-231 breast; assay: NCI-60 cell line screen, 48 h

Row | SMILES | TGI
6 | COC(=O)[C@]12CC[C@H]3CN(C(=O)OCc4ccccc4)[C@H]([C@H]31)[C@H](c1ccco1)N2 | > 100 µM
7 | O=C(C=P(c1ccccc1)(c1ccccc1)c1ccccc1)c1ccc(-c2cccc([N+](=O)[O-])c2)cc1 | 8 µM
8 | O=C1NC2c3c(I)sc(I)c3/C(=N\O)C2O1 (configuration not stated) | 95.8 µM
9 | O=C(NCCOC(=O)OCCNC(=O)NC1CCCCC1)NC1CCCCC1 | > 100 µM
10 | C[C@]1(O)CC[C@H]2[C@@H]3CCc4cc(O)ccc4[C@H]3CC[C@@]21C | 88 µM

system: LOX IMVI melanoma; assay: NCI-60 cell line screen, 48 h

Row | SMILES | TGI
11 | COC(=O)[C@]12CC[C@H]3CN(C(=O)OCc4ccccc4)[C@H]([C@H]31)[C@H](c1ccco1)N2 | > 100 µM
12 | O=C(C=P(c1ccccc1)(c1ccccc1)c1ccccc1)c1ccc(-c2cccc([N+](=O)[O-])c2)cc1 | 4.15 µM
13 | O=C1NC2c3c(I)sc(I)c3/C(=N\O)C2O1 (configuration not stated) | > 100 µM
14 | O=C(NCCOC(=O)OCCNC(=O)NC1CCCCC1)NC1CCCCC1 | > 100 µM
15 | C[C@]1(O)CC[C@H]2[C@@H]3CCc4cc(O)ccc4[C@H]3CC[C@@]21C | 72.5 µM

system: TK-10 renal; assay: NCI-60 cell line screen, 48 h

Row | SMILES | TGI
16 | COC(=O)[C@]12CC[C@H]3CN(C(=O)OCc4ccccc4)[C@H]([C@H]31)[C@H](c1ccco1)N2 | > 100 µM
17 | O=C(C=P(c1ccccc1)(c1ccccc1)c1ccccc1)c1ccc(-c2cccc([N+](=O)[O-])c2)cc1 | 55.9 µM
18 | O=C1NC2c3c(I)sc(I)c3/C(=N\O)C2O1 (configuration not stated) | > 100 µM
19 | O=C(NCCOC(=O)OCCNC(=O)NC1CCCCC1)NC1CCCCC1 | > 100 µM
20 | C[C@]1(O)CC[C@H]2[C@@H]3CCc4cc(O)ccc4[C@H]3CC[C@@]21C | 7.51 µM

system: DU-145 prostate; assay: NCI-60 cell line screen, 48 h

Row | SMILES | TGI | GI50
21 | COC(=O)[C@]12CC[C@H]3CN(C(=O)OCc4ccccc4)[C@H]([C@H]31)[C@H](c1ccco1)N2 | > 100 µM | –
22 | O=C(C=P(c1ccccc1)(c1ccccc1)c1ccccc1)c1ccc(-c2cccc([N+](=O)[O-])c2)cc1 | 35.1 µM | –
23 | O=C1NC2c3c(I)sc(I)c3/C(=N\O)C2O1 (configuration not stated) | > 100 µM | –
24 | O=C(NCCOC(=O)OCCNC(=O)NC1CCCCC1)NC1CCCCC1 | > 100 µM | –
25 | C[C@]1(O)CC[C@H]2[C@@H]3CCc4cc(O)ccc4[C@H]3CC[C@@]21C | 8.25 µM | 1.98 µM

system: OVCAR-8 ovarian; assay: NCI-60 cell line screen, 48 h

Row | SMILES | TGI
26 | COC(=O)[C@]12CC[C@H]3CN(C(=O)OCc4ccccc4)[C@H]([C@H]31)[C@H](c1ccco1)N2 | > 100 µM
27 | O=C1NC2c3c(I)sc(I)c3/C(=N\O)C2O1 (configuration not stated) | 43.4 µM
28 | O=C(NCCOC(=O)OCCNC(=O)NC1CCCCC1)NC1CCCCC1 | > 100 µM
29 | C[C@]1(O)CC[C@H]2[C@@H]3CCc4cc(O)ccc4[C@H]3CC[C@@]21C | 64.8 µM

system: HCC-2998 colon; assay: NCI-60 cell line screen, 48 h

Row | SMILES | TGI
30 | COC(=O)[C@]12CC[C@H]3CN(C(=O)OCc4ccccc4)[C@H]([C@H]31)[C@H](c1ccco1)N2 | > 100 µM
31 | O=C(C=P(c1ccccc1)(c1ccccc1)c1ccccc1)c1ccc(-c2cccc([N+](=O)[O-])c2)cc1 | 4.75 µM
32 | O=C1NC2c3c(I)sc(I)c3/C(=N\O)C2O1 (configuration not stated) | > 100 µM
33 | O=C(NCCOC(=O)OCCNC(=O)NC1CCCCC1)NC1CCCCC1 | > 100 µM
34 | C[C@]1(O)CC[C@H]2[C@@H]3CCc4cc(O)ccc4[C@H]3CC[C@@]21C | 0.937 µM

system: U251 CNS; assay: NCI-60 cell line screen, 48 h

Row | SMILES | TGI
35 | COC(=O)[C@]12CC[C@H]3CN(C(=O)OCc4ccccc4)[C@H]([C@H]31)[C@H](c1ccco1)N2 | > 100 µM
36 | O=C(C=P(c1ccccc1)(c1ccccc1)c1ccccc1)c1ccc(-c2cccc([N+](=O)[O-])c2)cc1 | 13.2 µM
37 | O=C1NC2c3c(I)sc(I)c3/C(=N\O)C2O1 (configuration not stated) | 76.9 µM
38 | O=C(NCCOC(=O)OCCNC(=O)NC1CCCCC1)NC1CCCCC1 | > 100 µM
39 | C[C@]1(O)CC[C@H]2[C@@H]3CCc4cc(O)ccc4[C@H]3CC[C@@]21C | > 100 µM

system: MDA-N; assay: NCI-60 cell line screen, 48 h

Row | SMILES | TGI
40 | COC(=O)[C@]12CC[C@H]3CN(C(=O)OCc4ccccc4)[C@H]([C@H]31)[C@H](c1ccco1)N2 | > 100 µM
41 | O=C(C=P(c1ccccc1)(c1ccccc1)c1ccccc1)c1ccc(-c2cccc([N+](=O)[O-])c2)cc1 | 9.09 µM
42 | O=C1NC2c3c(I)sc(I)c3/C(=N\O)C2O1 (configuration not stated) | > 100 µM
43 | O=C(NCCOC(=O)OCCNC(=O)NC1CCCCC1)NC1CCCCC1 | > 100 µM
44 | C[C@]1(O)CC[C@H]2[C@@H]3CCc4cc(O)ccc4[C@H]3CC[C@@]21C | 0.651 µM

system: SK-MEL-28 melanoma; assay: NCI-60 cell line screen, 48 h

Row | SMILES | TGI
45 | COC(=O)[C@]12CC[C@H]3CN(C(=O)OCc4ccccc4)[C@H]([C@H]31)[C@H](c1ccco1)N2 | > 100 µM
46 | O=C(C=P(c1ccccc1)(c1ccccc1)c1ccccc1)c1ccc(-c2cccc([N+](=O)[O-])c2)cc1 | 18.2 µM
47 | O=C1NC2c3c(I)sc(I)c3/C(=N\O)C2O1 (configuration not stated) | > 100 µM
48 | O=C(NCCOC(=O)OCCNC(=O)NC1CCCCC1)NC1CCCCC1 | > 100 µM
49 | C[C@]1(O)CC[C@H]2[C@@H]3CCc4cc(O)ccc4[C@H]3CC[C@@]21C | > 100 µM

system: RPMI-8226 leukemia; assay: NCI-60 cell line screen, 48 h

Row | SMILES | TGI
50 | COC(=O)[C@]12CC[C@H]3CN(C(=O)OCc4ccccc4)[C@H]([C@H]31)[C@H](c1ccco1)N2 | > 100 µM
51 | O=C(C=P(c1ccccc1)(c1ccccc1)c1ccccc1)c1ccc(-c2cccc([N+](=O)[O-])c2)cc1 | 3.98 µM
52 | O=C1NC2c3c(I)sc(I)c3/C(=N\O)C2O1 (configuration not stated) | > 100 µM
53 | O=C(NCCOC(=O)OCCNC(=O)NC1CCCCC1)NC1CCCCC1 | > 100 µM
54 | C[C@]1(O)CC[C@H]2[C@@H]3CCc4cc(O)ccc4[C@H]3CC[C@@]21C | 4.81 µM

system: MDA-MB-435; assay: NCI-60 cell line screen, 48 h

Row | SMILES | TGI
55 | COC(=O)[C@]12CC[C@H]3CN(C(=O)OCc4ccccc4)[C@H]([C@H]31)[C@H](c1ccco1)N2 | 61.8 µM
56 | O=C(C=P(c1ccccc1)(c1ccccc1)c1ccccc1)c1ccc(-c2cccc([N+](=O)[O-])c2)cc1 | 5.4 µM
57 | O=C1NC2c3c(I)sc(I)c3/C(=N\O)C2O1 (configuration not stated) | > 100 µM
58 | O=C(NCCOC(=O)OCCNC(=O)NC1CCCCC1)NC1CCCCC1 | > 100 µM
59 | C[C@]1(O)CC[C@H]2[C@@H]3CCc4cc(O)ccc4[C@H]3CC[C@@]21C | 0.761 µM

system: IGROV1 ovarian; assay: NCI-60 cell line screen, 48 h

Row | SMILES | TGI
60 | COC(=O)[C@]12CC[C@H]3CN(C(=O)OCc4ccccc4)[C@H]([C@H]31)[C@H](c1ccco1)N2 | > 100 µM
61 | O=C1NC2c3c(I)sc(I)c3/C(=N\O)C2O1 (configuration not stated) | 45 µM
62 | O=C(NCCOC(=O)OCCNC(=O)NC1CCCCC1)NC1CCCCC1 | > 100 µM
63 | C[C@]1(O)CC[C@H]2[C@@H]3CCc4cc(O)ccc4[C@H]3CC[C@@]21C | 27.8 µM

system: M14 melanoma; assay: NCI-60 cell line screen, 48 h

Row | SMILES | TGI
64 | COC(=O)[C@]12CC[C@H]3CN(C(=O)OCc4ccccc4)[C@H]([C@H]31)[C@H](c1ccco1)N2 | > 100 µM
65 | O=C(C=P(c1ccccc1)(c1ccccc1)c1ccccc1)c1ccc(-c2cccc([N+](=O)[O-])c2)cc1 | 4.64 µM
66 | O=C1NC2c3c(I)sc(I)c3/C(=N\O)C2O1 (configuration not stated) | > 100 µM
67 | O=C(NCCOC(=O)OCCNC(=O)NC1CCCCC1)NC1CCCCC1 | > 100 µM
68 | C[C@]1(O)CC[C@H]2[C@@H]3CCc4cc(O)ccc4[C@H]3CC[C@@]21C | 62.4 µM

system: KM12 colon; assay: NCI-60 cell line screen, 48 h

Row | SMILES | TGI
69 | COC(=O)[C@]12CC[C@H]3CN(C(=O)OCc4ccccc4)[C@H]([C@H]31)[C@H](c1ccco1)N2 | > 100 µM
70 | O=C(C=P(c1ccccc1)(c1ccccc1)c1ccccc1)c1ccc(-c2cccc([N+](=O)[O-])c2)cc1 | 20 µM
71 | O=C1NC2c3c(I)sc(I)c3/C(=N\O)C2O1 (configuration not stated) | > 100 µM
